The results in this text go back to patent publication US20150065709A1, “Aminoquinazoline Derivative And Use Thereof In Preparing Anti-Malignant Tumor Medicament” (METABOMICS, INC, priority 2012, published 2015).

Structures are written as SMILES. Like-named read-outs stand apart in the source and are kept apart here.

One data set has as its system H292. Put plainly: Inhibition of tumor cells, WST method. It is filed as cell-based. To be noted: Homo sapiens, NCI-H292, 48 hours. The procedure:
(§1) (1) Compounds: in vitro studies the test compounds was dissolved in 100% DMSO and diluted until the final concentration of DMSO was 0.1%. The 0.1% (v/v) DMSO was added into culture medium as solvent control. 9 concentration gradients were tested and each gradient was repeated twice. (2) Tumor cell lines: the tumor cell lines were cultivated in RPMI10 culture medium containing 10% fetal calf serum in incubator at 37° C. in a 5% CO2 air incubator. The tested tumor cell lines were: BT474, MDA-MB-231, SK-Br-3, A431, H292, H1975, HCC827, A549, H1650 and H1734. (3) MTS method: cells were seeded into 96-well plate to give a density of about 3000 cells per well, and incubated overnight in a humidified incubator at 37° C. In the next day, the test compounds were added to the wells and further incubated for 72 hours. The cell activity was detected using MTS. IC50 was calculated (the concentration of a compound that is required for 50% inhibition of the cell growth versus the DMSO control group, using nonlinear regression analysis of software GraphPad Prism). […] In a 96-well plate, each test compound was tested at 9 dosage concentrations and each dosage was made in triplicate. Samples were added in 100 μL/well. Cell control and negative control wells contained diluents instead of compounds. Except the negative control well, 100 μL cell suspension of complete medium was added into each test well, wherein corresponding cell numbers were included to assure that the cells in cell control well just cover the bottom of the well as the required incubation time was reached. The plate was incubated in a CO2 incubator at 37° C. for 48 hours. The liquid in test wells was removed by pipetting. 100 μL CCK-8 (Cell counting Kit-8, purchased from DOJINDO Molecular Technologies) detection liquid (containing 10% CCK-8, 5% FBS corresponding medium) was added into each test well, then the plate was incubated in a CO2 incubator under at 37° C. for 3 hours. OD value was detected by ELIASA at A450 nm. Cell viability percentage (%)=(O.D. test compound-O.D. blank)/(O.D. control-O.D. blank)×100. Mean value was calculated for each 3 repeated wells, and IC50 was calculated using nonlinear regression (fitted curve) data analysis method.
(§2) Parts of test results of compound Ie listed in the table 3 and all of the test results listed in the table 4 were obtained by WST method.

The test system of a further data set is ZR-75-30. Put plainly: Inhibition of tumor cells, WST method. Particulars: Homo sapiens, Breast. Type of data set: cell-based. As for the experimental part: as §1, §2
In the next data set the test system is ACHN. Kind of data set: Inhibition of tumor cells, WST method. To be noted: Homo sapiens, Kidney. It is filed as cell-based. The procedure: as §1, §2
In another data set the test system is SK-Br-3. Put plainly: Inhibition of tumor cells, WST method. Type of data set: cell-based. Particulars: Homo sapiens, 48 hours. The procedure:
as §1, §2

The next data set has as its system CAL27. Put plainly: Inhibition of tumor cells, WST method. It is filed as cell-based. Particulars: Homo sapiens, CAL-27, Head and Neck. As for the experimental part:
as §1, §2

The test system of a further data set is H1975. Kind of data set: Inhibition of tumor cells, WST method. It is filed as cell-based. Particulars: Homo sapiens, NCI-H1975, 48 hours. The procedure:
as §1, §2

The next data set deals with BT474. Kind of data set: Inhibition of tumor cells, WST method. It is filed as cell-based. To be noted: Homo sapiens, BT-474, 48 hours. As for the experimental part: as §1, §2
The next data set deals with Calu-3. Kind of data set: Inhibition of tumor cells, WST method. Type of data set: cell-based. Particulars: Homo sapiens, Lung. As for the experimental part:
as §1, §2

The subject of a further data set is MDA-MB-468. Put plainly: Inhibition of tumor cells, WST method. Type of data set: cell-based. Particulars: Homo sapiens, Breast. As for the experimental part:
as §1, §2

A further data set concerns DU145. Kind of data set: Inhibition of tumor cells, WST method. It is filed as cell-based. Particulars: Homo sapiens, DU-145, Prostate. As for the experimental part:
as §1, §2

The target in another data set is EGFR kinases (Homo sapiens, UniProt P00533). Put plainly: Reversible inhibition test of enzyme activity of EGFR kinases. Type of data set: biochemical.
Sequence of EGFR kinases (P00533 25-1210): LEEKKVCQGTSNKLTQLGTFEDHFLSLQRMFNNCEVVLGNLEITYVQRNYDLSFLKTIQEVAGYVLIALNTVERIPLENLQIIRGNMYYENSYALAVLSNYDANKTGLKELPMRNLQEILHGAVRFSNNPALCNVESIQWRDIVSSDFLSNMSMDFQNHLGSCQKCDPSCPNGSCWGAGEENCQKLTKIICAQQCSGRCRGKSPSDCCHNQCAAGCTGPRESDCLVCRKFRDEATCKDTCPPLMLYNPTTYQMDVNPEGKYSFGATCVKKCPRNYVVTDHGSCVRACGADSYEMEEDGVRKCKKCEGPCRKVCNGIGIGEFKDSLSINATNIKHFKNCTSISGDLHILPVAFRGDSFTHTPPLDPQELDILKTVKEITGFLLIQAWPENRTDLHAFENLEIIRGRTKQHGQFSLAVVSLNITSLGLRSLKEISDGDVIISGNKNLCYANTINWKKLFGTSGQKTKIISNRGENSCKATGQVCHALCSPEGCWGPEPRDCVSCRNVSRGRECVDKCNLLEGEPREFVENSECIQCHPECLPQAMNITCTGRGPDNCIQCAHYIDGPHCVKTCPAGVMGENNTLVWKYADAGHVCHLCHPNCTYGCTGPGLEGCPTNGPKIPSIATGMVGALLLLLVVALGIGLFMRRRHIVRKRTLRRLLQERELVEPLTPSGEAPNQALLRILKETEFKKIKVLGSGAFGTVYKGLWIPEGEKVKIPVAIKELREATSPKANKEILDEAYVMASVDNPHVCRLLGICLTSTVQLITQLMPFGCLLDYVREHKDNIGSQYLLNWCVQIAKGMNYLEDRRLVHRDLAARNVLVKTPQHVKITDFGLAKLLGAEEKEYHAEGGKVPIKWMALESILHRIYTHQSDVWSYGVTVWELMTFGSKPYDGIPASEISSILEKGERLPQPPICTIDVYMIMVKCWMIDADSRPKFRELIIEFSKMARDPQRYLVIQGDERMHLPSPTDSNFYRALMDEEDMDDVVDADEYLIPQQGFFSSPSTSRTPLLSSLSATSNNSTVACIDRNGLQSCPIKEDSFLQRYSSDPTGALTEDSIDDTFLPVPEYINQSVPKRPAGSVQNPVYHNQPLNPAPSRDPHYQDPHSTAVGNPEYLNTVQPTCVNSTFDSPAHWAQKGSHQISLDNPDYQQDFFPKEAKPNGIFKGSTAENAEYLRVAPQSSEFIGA
A further data set concerns the target EGFR^T790M (Homo sapiens, UniProt P00533, T790M). Put plainly: Caliper Mobility Shift Assay, mutant EGFR kinase. Type of data set: biochemical. To be noted: read-out: Inhibition of Kinase Activity (IC50, nM) EGFR^T790M.
Data set [1] can be described thus: Pharmacokinetic experiments in CD-1 mice. It is filed as in vivo. Particulars: male, mouse, plasma; for half-life: read-out: Terminal t1/2 (converted). The procedure:
Experiment animals: CD-1 mice, male, 6-7 weeks of age; body weight: 20-25 g; Preparation of samples: the test compounds respectively were formulated to 0.2 mg/mL (for intravenous administration) and 1.0 mg/mL (for oral administration) for use. Administration routes: oral administration/intravenous administration. Amount and frequency of administration: 5 mL/kg for single administration.
Sample collection: blood was collected at the time points of 5 min, 15 min, 30 min, 1 h, 2 h, 4 h, 8 h and 24 h, about […] whole blood was collected from 3 animals at each time point. All of the animals were euthanized after the experiments.
Sample analysis: the collected samples were detected by LC-MS/MS, and the instrument model is SHIMADZU20A-API4000.
Pharmacokinetic data analysis: the obtained plasma concentration data were fitted and calculated using WinNolin according to non-compartment model.

In a further data set the target is EGFR^L858R/T790M (Homo sapiens, UniProt P00533, L858R/T790M). Kind of data set: Caliper Mobility Shift Assay, double mutant EGFR kinase. Particulars: read-out: Inhibition of Kinase Activity (IC50, nM) EGFR^L858R/T790M. It is filed as biochemical. As for the experimental part: Half maximal inhibitory concentration IC50 (the concentration of a compound that is required for 50% inhibition of the activity of an enzyme) was tested based on an immobilized enzyme mixing with a specific substrate and the test compounds in different concentrations. The used test method was Caliper Mobility Shift Assay. […] […].
Sequence of EGFR^L858R/T790M (P00533 25-1210 T790M/L858R): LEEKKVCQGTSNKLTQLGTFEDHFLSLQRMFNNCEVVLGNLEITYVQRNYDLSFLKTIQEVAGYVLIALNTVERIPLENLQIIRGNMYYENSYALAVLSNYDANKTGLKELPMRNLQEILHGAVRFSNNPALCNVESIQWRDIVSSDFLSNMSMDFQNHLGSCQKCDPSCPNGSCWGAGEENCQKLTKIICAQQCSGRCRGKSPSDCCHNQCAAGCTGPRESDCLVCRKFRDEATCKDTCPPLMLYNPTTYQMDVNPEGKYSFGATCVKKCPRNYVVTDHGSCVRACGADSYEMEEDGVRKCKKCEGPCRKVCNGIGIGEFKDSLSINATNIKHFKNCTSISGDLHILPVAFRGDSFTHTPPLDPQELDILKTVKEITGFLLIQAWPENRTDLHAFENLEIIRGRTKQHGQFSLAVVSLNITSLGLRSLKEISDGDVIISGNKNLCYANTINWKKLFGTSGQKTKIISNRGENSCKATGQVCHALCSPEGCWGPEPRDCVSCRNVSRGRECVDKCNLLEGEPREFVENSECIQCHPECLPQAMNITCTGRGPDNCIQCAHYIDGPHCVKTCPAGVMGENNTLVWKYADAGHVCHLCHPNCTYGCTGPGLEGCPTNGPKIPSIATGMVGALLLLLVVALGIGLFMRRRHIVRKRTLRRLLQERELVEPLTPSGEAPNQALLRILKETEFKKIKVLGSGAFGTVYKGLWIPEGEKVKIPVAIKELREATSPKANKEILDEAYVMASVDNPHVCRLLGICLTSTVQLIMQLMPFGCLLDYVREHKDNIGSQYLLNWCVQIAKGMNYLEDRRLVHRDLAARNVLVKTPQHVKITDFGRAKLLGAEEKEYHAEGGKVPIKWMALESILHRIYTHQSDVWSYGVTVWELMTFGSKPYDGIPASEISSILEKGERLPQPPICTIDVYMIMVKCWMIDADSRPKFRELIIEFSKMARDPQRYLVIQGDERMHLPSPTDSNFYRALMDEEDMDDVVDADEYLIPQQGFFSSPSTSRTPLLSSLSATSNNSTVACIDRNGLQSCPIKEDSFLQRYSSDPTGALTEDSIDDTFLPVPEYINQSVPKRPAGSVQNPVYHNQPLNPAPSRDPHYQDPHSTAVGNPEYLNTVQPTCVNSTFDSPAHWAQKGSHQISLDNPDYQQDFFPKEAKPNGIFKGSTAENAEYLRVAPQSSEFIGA
According to the same test method, the inhibitory effects of the compound of Formula Ie on mutant EGFR kinases were tested, including single mutant EGFR^LS58R, EGFR^T790M and double mutant EGFR^L858R/T790M kinases.

Sequence of EGFR^T790M (P00533 25-1210 T790M): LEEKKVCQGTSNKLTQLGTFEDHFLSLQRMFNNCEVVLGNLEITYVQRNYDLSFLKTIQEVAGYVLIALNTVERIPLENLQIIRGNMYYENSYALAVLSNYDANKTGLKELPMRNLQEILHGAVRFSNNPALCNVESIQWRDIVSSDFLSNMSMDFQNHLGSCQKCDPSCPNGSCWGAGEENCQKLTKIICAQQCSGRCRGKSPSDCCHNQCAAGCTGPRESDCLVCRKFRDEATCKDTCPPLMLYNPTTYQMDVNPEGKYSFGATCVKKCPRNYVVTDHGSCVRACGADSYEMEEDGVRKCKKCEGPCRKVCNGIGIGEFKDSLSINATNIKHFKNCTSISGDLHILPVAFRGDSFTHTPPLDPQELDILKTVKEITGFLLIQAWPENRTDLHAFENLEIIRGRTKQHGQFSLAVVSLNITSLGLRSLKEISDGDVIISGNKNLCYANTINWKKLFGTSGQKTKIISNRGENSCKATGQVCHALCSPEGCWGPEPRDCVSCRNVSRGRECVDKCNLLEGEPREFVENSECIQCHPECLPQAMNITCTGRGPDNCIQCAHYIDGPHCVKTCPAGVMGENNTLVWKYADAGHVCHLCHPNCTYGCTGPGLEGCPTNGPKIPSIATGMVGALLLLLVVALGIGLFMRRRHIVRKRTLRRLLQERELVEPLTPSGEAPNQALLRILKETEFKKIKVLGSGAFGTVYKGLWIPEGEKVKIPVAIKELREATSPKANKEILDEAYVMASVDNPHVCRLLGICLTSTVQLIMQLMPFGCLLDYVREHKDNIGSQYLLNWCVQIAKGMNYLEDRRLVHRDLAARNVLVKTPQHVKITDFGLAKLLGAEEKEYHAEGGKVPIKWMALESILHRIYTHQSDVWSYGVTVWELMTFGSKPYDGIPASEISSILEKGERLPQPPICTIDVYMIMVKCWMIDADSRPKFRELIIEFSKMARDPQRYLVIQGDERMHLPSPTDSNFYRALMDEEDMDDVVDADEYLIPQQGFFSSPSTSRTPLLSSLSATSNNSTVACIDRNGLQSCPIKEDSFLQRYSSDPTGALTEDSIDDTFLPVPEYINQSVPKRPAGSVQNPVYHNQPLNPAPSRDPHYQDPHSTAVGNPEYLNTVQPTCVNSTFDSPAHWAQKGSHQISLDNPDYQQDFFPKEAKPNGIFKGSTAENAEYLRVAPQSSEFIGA

`CN(C)C/C=C/C(=O)Nc1cc2c(Nc3ccc(F)c(Cl)c3)ncnc2cc1OC(F)F` [Compound Ie]: the IC50 worked out at 0.181 µM in the data set on H292; 0.683 µM in the data set with ZR-75-30; 0.107 µM in the data set with ACHN; 0.028 µM with SK-Br-3; 0.002 µM with CAL27; 0.198 µM with H1975. The IC50 with BT474 is 0.088 µM; in the data set with Calu-3 it was 0.022 µM; in the data set with MDA-MB-468, 0.076 µM; in the data set on DU145, 0.853 µM; on EGFR^T790M, 4.6 nM; at EGFR^L858R/T790M it was 11 nM. The “reversibility of inhibition of EGFR kinases” value on EGFR kinases is listed as “irreversibility”. Further, the area under the curve AUC(0-inf) in data set [1] (1 mg/kg Intravenous Injection) was 167 ng·h/mL; in data set [1] (5 mg/kg Oral Administration) it was 1600 ng·h/mL. Further, the AUC(0-t) in data set [1] (1 mg/kg Intravenous Injection) stood at 137 ng·h/mL; in data set [1] (5 mg/kg Oral Administration), 1150 ng·h/mL. For the same compound, in data set [1] (1 mg/kg Intravenous Injection), the MRT inf was determined as 2.88 h. Moreover, the clearance in data set [1] (1 mg/kg Intravenous Injection) was 115 mL/min/kg. Also, the half-life in [1] (1 mg/kg Intravenous Injection) is 2.31 h; in data set [1] (5 mg/kg Oral Administration), 7.11 h. For the same compound, the Vd in data set [1] (1 mg/kg Intravenous Injection, read-out: Vss) came to 18.9 L/kg. In data set [1] (5 mg/kg Oral Administration), this compound gave a Cmax of 92.3 ng/mL. The time of peak concentration (Tmax) in [1] (5 mg/kg Oral Administration) amounted to 4.33 h.

For orientation: AUC(0-inf) means the area under the concentration-time curve extrapolated to infinity. Read a low AUC(0-inf) as low exposure. The term AUC(0-t) denotes the area under the concentration-time curve up to a stated or last time point. Usually MRT inf stands for the average time that molecules of a dose stay in the body. The term clearance denotes a measure of how efficiently the substance is removed, as volume per time. As usually defined, the Cmax is the highest concentration seen after dosing. For orientation: Tmax means the time from dosing to the highest level.
